Reference: patent US20150150879A2, “Compositions for Treatment of Cystic Fibrosis and Other Chronic Diseases” (Vertex Pharmaceuticals Incorporated, priority 2010, published 2015)

Molecular target: T1, ΔF508-CFTR (Homo sapiens, UniProt P13569, DEL508-508)
T1 construct: expressed in transfected cells
Test: Membrane potential optical (FRET/VIPR) assay, identification of potentiator compounds, NIH3T3 cells stably expressing ΔF508-CFTR
Format: cell-based
Conditions: Table II.A-4, assay not given; for EC50: modulators of ATP binding cassette transporters
Excerpt: I) Membrane Potential Optical Methods for Assaying ΔF508-CFTR Modulation Properties of Compounds
The optical membrane potential assay utilized voltage-sensitive FRET sensors described by Gonzalez and Tsien (See, Gonzalez, J. E. and R. Y. Tsien (1995) “Voltage sensing by fluorescence resonance energy transfer in single cells” Biophys J 69(4): 1272-80, and Gonzalez, J. E. and R. Y. Tsien (1997) “Improved indicators of cell membrane potential that use fluorescence resonance energy transfer” Chem Biol 4(4): 269-77) in combination with instrumentation for measuring fluorescence changes such as the Voltage/Ion Probe Reader (VIPR) (See, Gonzalez, J. E., K. Oades, et al. (1999) “Cell-based assays and instrumentation for screening ion-channel targets” Drug Discov Today 4(9): 431-439).
These voltage sensitive assays are based on the change in fluorescence resonant energy transfer (FRET) between the membrane-soluble, voltage-sensitive dye, DiSBAC2(3), and a fluorescent phospholipid, CC2-DMPE, which is attached to the outer leaflet of the plasma membrane and acts as a FRET donor. Changes in membrane potential (Vm) cause the negatively charged DiSBAC2(3) to redistribute across the plasma membrane and the amount of energy transfer from CC2-DMPE changes accordingly. The changes in fluorescence emission were monitored using VIPR™ II, which is an integrated liquid handler and fluorescent detector designed to conduct cell-based screens in 96- or 384-well microtiter plates.
Identification of Potentiator Compounds
To identify potentiators of ΔF508-CFTR, a double-addition HTS assay format was developed. During the first addition, a Cl^−-free medium with or without test compound was added to each well. After 22 sec, a second addition of Cl^−-free medium containing 2-10 μM forskolin was added to activate ΔF508-CFTR. The extracellular Cl^− concentration following both additions was 28 mM, which promoted Cl^− efflux in response to ΔF508-CFTR activation and the resulting membrane depolarization was optically monitored using the FRET-based voltage-sensor dyes. Solutions […]

T1 sequence (P13569 with tags, fused parts or gaps DEL508-508): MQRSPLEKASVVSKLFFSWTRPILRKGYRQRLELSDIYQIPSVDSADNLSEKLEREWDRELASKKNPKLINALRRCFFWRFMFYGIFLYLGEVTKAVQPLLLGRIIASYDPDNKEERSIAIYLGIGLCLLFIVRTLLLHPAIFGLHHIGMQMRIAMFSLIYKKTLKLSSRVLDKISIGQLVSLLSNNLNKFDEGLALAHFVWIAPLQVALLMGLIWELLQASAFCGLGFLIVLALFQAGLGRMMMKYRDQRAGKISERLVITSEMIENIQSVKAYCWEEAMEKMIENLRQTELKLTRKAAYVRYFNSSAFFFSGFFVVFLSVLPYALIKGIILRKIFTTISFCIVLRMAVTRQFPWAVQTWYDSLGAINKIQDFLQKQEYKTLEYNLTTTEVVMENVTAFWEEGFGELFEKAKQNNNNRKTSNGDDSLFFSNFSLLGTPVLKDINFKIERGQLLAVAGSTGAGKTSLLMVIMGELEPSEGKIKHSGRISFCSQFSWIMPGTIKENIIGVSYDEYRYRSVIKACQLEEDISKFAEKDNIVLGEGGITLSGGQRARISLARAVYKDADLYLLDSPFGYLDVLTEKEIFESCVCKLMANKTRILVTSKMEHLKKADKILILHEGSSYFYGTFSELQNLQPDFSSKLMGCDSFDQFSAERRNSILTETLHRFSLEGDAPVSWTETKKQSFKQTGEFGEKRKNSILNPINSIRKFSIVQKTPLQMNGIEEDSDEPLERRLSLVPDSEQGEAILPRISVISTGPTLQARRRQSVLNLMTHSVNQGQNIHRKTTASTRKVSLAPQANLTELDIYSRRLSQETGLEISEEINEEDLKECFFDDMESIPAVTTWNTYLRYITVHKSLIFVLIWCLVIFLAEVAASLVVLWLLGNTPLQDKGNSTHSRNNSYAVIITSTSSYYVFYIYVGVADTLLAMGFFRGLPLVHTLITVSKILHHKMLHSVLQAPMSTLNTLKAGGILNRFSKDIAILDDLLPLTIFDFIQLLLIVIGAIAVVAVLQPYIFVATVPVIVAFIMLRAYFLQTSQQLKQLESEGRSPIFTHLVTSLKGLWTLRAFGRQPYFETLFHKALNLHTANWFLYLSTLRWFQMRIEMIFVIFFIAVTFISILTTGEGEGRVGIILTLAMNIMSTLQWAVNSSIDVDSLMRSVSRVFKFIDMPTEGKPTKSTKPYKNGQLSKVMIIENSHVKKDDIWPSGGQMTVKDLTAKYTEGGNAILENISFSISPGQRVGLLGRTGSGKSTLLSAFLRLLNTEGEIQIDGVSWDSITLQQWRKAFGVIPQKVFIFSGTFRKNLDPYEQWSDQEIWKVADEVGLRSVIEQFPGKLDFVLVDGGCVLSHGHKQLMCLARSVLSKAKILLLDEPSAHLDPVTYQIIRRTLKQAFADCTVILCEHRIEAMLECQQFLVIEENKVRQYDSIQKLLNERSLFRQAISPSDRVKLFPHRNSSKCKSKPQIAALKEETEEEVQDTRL

SMILES	EC50 [µM]	% Activity (relative efficacy) (relative efficacy)
CC(C)(C)c1cc(C(C)(C)C)c(NC(=O)c2c[nH]c3cccc(O)c3c2=O)cc1O [Compound 464, 5-hydroxy-N-(5-hydroxy-2,4-ditert-butyl-phenyl)-4-oxo-1H-quinoline-3-carboxamide]	< 10	++ (“++” means between 25% to 100%)
Cc1cc2nc(NC(=O)c3c[nH]c4ccccc4c3=O)[nH]c2cc1C [compound 422, N-(5,6-dimethyl-3H-benzoimidazol-2-yl)-4-oxo-1H-quinoline-3-carboxamide]	< 10	–
